Measured values published in PMC5218480 (PLoS ONE, 2017).

Tested on: MV-4-11 cells
Assay: Gene expression microarray analysis (Affymetrix PrimeView) and GSEA
Type: cell-based, human
Design: RFU PODN (11730768_x_at) / Fold change /veh PODN (11730768_x_at) / RFU LINC00158 (11744669_a_at) / Fold change /veh LINC00158 (11744669_a_at) / RFU DUSP10 (11751237_a_at) / Fold change /veh DUSP10 (11751237_a_at) / RFU ID3 (11757404_x_at) / Fold change /veh ID3 (11757404_x_at) / RFU PLEKHG5 (11737974_s_at) / Fold change /veh PLEKHG5 (11737974_s_at) / RFU LRRC4B (11730491_at) / Fold change /veh LRRC4B (11730491_at) / RFU GIMAP4 (11747438_a_at) / Fold change /veh GIMAP4 (11747438_a_at) / RFU KRT8 (11758183_x_at) / Fold change /veh KRT8 (11758183_x_at) / RFU CNN1 (11734310_a_at) / Fold change /veh CNN1 (11734310_a_at) / RFU VPS37D (11726825_at) / Fold change /veh VPS37D (11726825_at) / RFU C10orf10 (11716522_x_at) / Fold change /veh C10orf10 (11716522_x_at) / RFU KIR2DL2 /// KIR2DL4 /// KIR2DL5A /// KIR2DL5B /// KIR2DS1 /// KIR2DS2 /// KIR2DS3 /// KIR2DS4 /// KIR3DL3 /// KIR3DL3 /// KIR3DS1 (11738374_at) / Fold change /veh KIR2DL2 /// KIR2DL4 /// KIR2DL5A /// KIR2DL5B /// KIR2DS1 /// KIR2DS2 /// KIR2DS3 /// KIR2DS4 /// KIR3DL3 /// KIR3DL3 /// KIR3DS1 (11738374_at) / RFU C1QL1 (11718748_at) / Fold change /veh C1QL1 (11718748_at) / RFU TMPRSS4 (11747572_a_at) / Fold change /veh TMPRSS4 (11747572_a_at) / RFU HAMP (11756126_x_at) / Fold change /veh HAMP (11756126_x_at) / RFU RNFT2 (11725882_a_at) / Fold change /veh RNFT2 (11725882_a_at) / RFU NR4A2 (11747474_a_at) / Fold change /veh NR4A2 (11747474_a_at) / RFU ABCC12 (11746883_a_at) / Fold change /veh ABCC12 (11746883_a_at) / RFU TMEM136 (11760407_x_at) / Fold change /veh TMEM136 (11760407_x_at) / RFU CLDN22 /// WWC2 (11732394_at) / Fold change /veh CLDN22 /// WWC2 (11732394_at) / RFU HLA-DPB1 (11760878_x_at) / Fold change /veh HLA-DPB1 (11760878_x_at) / RFU SPINT1 (11716480_a_at) / Fold change /veh SPINT1 (11716480_a_at) / RFU GAP43 (11754022_s_at) / Fold change /veh GAP43 (11754022_s_at) / RFU A4GNT (11735810_at) / Fold change /veh A4GNT (11735810_at) / RFU PRB3 (11715151_x_at) / Fold change /veh PRB3 (11715151_x_at) / RFU TUBB4B (11761932_at) / Fold change /veh TUBB4B (11761932_at) / RFU CAPN14 (11732068_a_at) / Fold change /veh CAPN14 (11732068_a_at) / RFU TMCC2 (11721928_a_at) / Fold change /veh TMCC2 (11721928_a_at) / RFU IRGQ (11745062_a_at) / Fold change /veh IRGQ (11745062_a_at) / RFU FAM174B (11720279_a_at) / Fold change /veh FAM174B (11720279_a_at) / RFU TMPRSS4 (11748680_a_at) / Fold change /veh TMPRSS4 (11748680_a_at) / RFU FAM212B (11763350_a_at) / Fold change /veh FAM212B (11763350_a_at) / RFU PLEKHG5 (11743358_a_at) / Fold change /veh PLEKHG5 (11743358_a_at) / RFU ZSCAN30 (11745921_a_at) / Fold change /veh ZSCAN30 (11745921_a_at) / RFU CMKLR1 (11741424_a_at) / Fold change /veh CMKLR1 (11741424_a_at) / RFU LOC101060620 /// MAPK8IP1 (11723275_at) / Fold change /veh LOC101060620 /// MAPK8IP1 (11723275_at) / RFU SPTSSB (11747773_x_at) / Fold change /veh SPTSSB (11747773_x_at) / RFU PRSS12 (11739890_at) / Fold change /veh PRSS12 (11739890_at) / RFU BIN1 (11741810_x_at) / Fold change /veh BIN1 (11741810_x_at) / RFU WNT11 (11732464_a_at) / Fold change /veh WNT11 (11732464_a_at) / RFU C10orf10 (11716521_a_at) / Fold change /veh C10orf10 (11716521_a_at) / RFU C5orf56 (11738089_at) / Fold change /veh C5orf56 (11738089_at) / RFU CYB561 (11721691_x_at) / Fold change /veh CYB561 (11721691_x_at) / RFU ANKRD19P (11752326_a_at) / Fold change /veh ANKRD19P (11752326_a_at) / RFU OR2T12 /// OR2T33 /// OR2T8 (11738714_s_at) / Fold change /veh OR2T12 /// OR2T33 /// OR2T8 (11738714_s_at) / RFU VCAN (11748164_a_at) / Fold change /veh VCAN (11748164_a_at) / RFU JSRP1 (11732532_at) / Fold change /veh JSRP1 (11732532_at) / RFU KRTAP10-11 (11738290_x_at) / Fold change /veh KRTAP10-11 (11738290_x_at) / RFU MYO3A (11730013_a_at) / Fold change /veh MYO3A (11730013_a_at) / RFU EBF3 (11725865_a_at) / Fold change /veh EBF3 (11725865_a_at) / RFU CAMK2N1 (11719241_x_at) / Fold change /veh CAMK2N1 (11719241_x_at) / RFU C5orf56 (11738088_a_at) / Fold change /veh C5orf56 (11738088_a_at) / RFU OLFML3 (11715873_a_at) / Fold change /veh OLFML3 (11715873_a_at) / RFU LOC100653217 /// NTM (11731650_a_at) / Fold change /veh LOC100653217 /// NTM (11731650_a_at) / RFU MAPK11 (11762145_a_at) / Fold change /veh MAPK11 (11762145_a_at) / RFU FIZ1 (11724087_x_at) / Fold change /veh FIZ1 (11724087_x_at) / RFU OASL (11726364_x_at) / Fold change /veh OASL (11726364_x_at) / RFU SOX15 (11748057_x_at) / Fold change /veh SOX15 (11748057_x_at) / RFU CD79A (11719716_a_at) / Fold change /veh CD79A (11719716_a_at) / RFU HIST1H1D (11736915_at) / Fold change /veh HIST1H1D (11736915_at) / RFU CASKIN2 (11723855_a_at) / Fold change /veh CASKIN2 (11723855_a_at) / RFU LOC730098 (11760151_x_at) / Fold change /veh LOC730098 (11760151_x_at) / RFU OR4N2 (11742367_at) / Fold change /veh OR4N2 (11742367_at) / RFU PRRT2 (11749266_a_at) / Fold change /veh PRRT2 (11749266_a_at) / RFU SNX32 (11753110_a_at) / Fold change /veh SNX32 (11753110_a_at) / RFU CDHR5 (11726645_a_at) / Fold change /veh CDHR5 (11726645_a_at) / RFU RCAN1 (11760418_a_at) / Fold change /veh RCAN1 (11760418_a_at) / RFU FAM167A (11723789_a_at) / Fold change /veh FAM167A (11723789_a_at) / RFU FAM26E (11764081_at) / Fold change /veh FAM26E (11764081_at) / RFU ISYNA1 (11749810_s_at) / Fold change /veh ISYNA1 (11749810_s_at) / RFU ACY1 (11761880_at) / Fold change /veh ACY1 (11761880_at) / RFU 11764098_at / Fold change /veh 11764098_at / RFU SAMD14 (11745864_x_at) / Fold change /veh SAMD14 (11745864_x_at) / RFU NPB (11741838_a_at) / Fold change /veh NPB (11741838_a_at) / RFU TMPRSS6 (11731388_a_at) / Fold change /veh TMPRSS6 (11731388_a_at) / RFU KRTAP10-2 (11738614_at) / Fold change /veh KRTAP10-2 (11738614_at) / RFU ARHGAP8 /// PRR5-ARHGAP8 (11727945_x_at) / Fold change /veh ARHGAP8 /// PRR5-ARHGAP8 (11727945_x_at) / RFU KRTAP5-7 /// NADSYN1 (11734609_at) / Fold change /veh KRTAP5-7 /// NADSYN1 (11734609_at) / RFU RASL12 (11751679_a_at) / Fold change /veh RASL12 (11751679_a_at) / RFU CDKN2B (11736163_a_at) / Fold change /veh CDKN2B (11736163_a_at) / RFU PRF1 (11729649_at) / Fold change /veh PRF1 (11729649_at) / RFU, ZNF638 /// ZNF638-IT1 / Fold change vs veh, ZNF638 /// ZNF638-IT1 / RFU, PANK3 / Fold change vs veh, PANK3 / RFU, SH3YL1 / Fold change vs veh, SH3YL1 / RFU, ZEB2 / Fold change vs veh, ZEB2 / RFU, NRIP1 / Fold change vs veh, NRIP1 / RFU, PTTG1IP / Fold change vs veh, PTTG1IP / RFU, CAPN2 / Fold change vs veh, CAPN2 / RFU, MED14 / Fold change vs veh, MED14 / RFU, SNORA58 / Fold change vs veh, SNORA58 / RFU, C1orf63 / Fold change vs veh, C1orf63 / RFU, LRRFIP1 / Fold change vs veh, LRRFIP1 / RFU, NDUFAF7 / Fold change vs veh, NDUFAF7 / RFU, SLC12A2 / Fold change vs veh, SLC12A2 / RFU, IBTK / Fold change vs veh, IBTK / RFU, ESF1 / Fold change vs veh, ESF1 / Fold change vs veh, TMEM50B / RFU, TAOK1 / Fold change vs veh, TAOK1 / RFU, ACBD3 / Fold change vs veh, ACBD3 / RFU, TMA16 / Fold change vs veh, TMA16 / RFU, RWDD3 / Fold change vs veh, RWDD3 / RFU, BCAT1 / Fold change vs veh, BCAT1 / RFU, EDEM3 / Fold change vs veh, EDEM3 / RFU, TMEM33 / Fold change vs veh, TMEM33 / RFU, WDR75 / Fold change vs veh, WDR75 / RFU, AHCTF1 / Fold change vs veh, AHCTF1 / RFU, TFRC / Fold change vs veh, TFRC / RFU, ZDHHC17 / Fold change vs veh, ZDHHC17 / RFU, NOM1 / Fold change vs veh, NOM1 / RFU, ARL8B / Fold change vs veh, ARL8B / RFU, ZBTB11 / Fold change vs veh, ZBTB11 / RFU, TAMM41 / Fold change vs veh, TAMM41 / RFU, KIAA1704 /// LOC100996395 / Fold change vs veh, KIAA1704 /// LOC100996395 / RFU, ING1 / Fold change vs veh, ING1 / RFU, TRMT61B / Fold change vs veh, TRMT61B / RFU, FUBP3 / Fold change vs veh, FUBP3 / RFU, TP53 / Fold change vs veh, TP53 / RFU, TNKS2 / Fold change vs veh, TNKS2 / RFU, ZFP14 / Fold change vs veh, ZFP14 / RFU, ACTR2 / Fold change vs veh, ACTR2 / RFU, PPP3R1 / Fold change vs veh, PPP3R1 / RFU, PIK3R1 / Fold change vs veh, PIK3R1 / RFU, HNRNPA1 / Fold change vs veh, HNRNPA1 / RFU, RNF170 / Fold change vs veh, RNF170 / RFU, ZNF28 / Fold change vs veh, ZNF28 / RFU, RNGTT / Fold change vs veh, RNGTT / RFU, OGT / Fold change vs veh, OGT / RFU, BRD1 / Fold change vs veh, BRD1 / RFU, MARS / Fold change vs veh, MARS / RFU, ZNF655 / Fold change vs veh, ZNF655 / RFU, FAHD1 / Fold change vs veh, FAHD1 / RFU, BDP1 / Fold change vs veh, BDP1 / RFU, LRRCC1 / Fold change vs veh, LRRCC1 / RFU, ARID1A / Fold change vs veh, ARID1A / RFU, ZNF146 / Fold change vs veh, ZNF146 / RFU, ZNF330 / Fold change vs veh, ZNF330 / RFU, GPN3 / Fold change vs veh, GPN3 / RFU, C9orf123 / Fold change vs veh, C9orf123 / RFU, N4BP2L2 / Fold change vs veh, N4BP2L2 / RFU, ARFIP1 / Fold change vs veh, ARFIP1 / RFU, FAM179B / Fold change vs veh, FAM179B / RFU, BCL10 / Fold change vs veh, BCL10 / RFU, UHRF1BP1L / Fold change vs veh, UHRF1BP1L / RFU, BET1 / Fold change vs veh, BET1 / RFU, CNOT2 / Fold change vs veh, CNOT2 / RFU, ZNF268 / Fold change vs veh, ZNF268 / Fold change vs veh, ZNF507 / RFU, DGCR2 / Fold change vs veh, DGCR2 / RFU, WDSUB1 / Fold change vs veh, WDSUB1 / Fold change vs veh, HSP90B1 /// MIR3652 / RFU, ADSS / Fold change vs veh, ADSS / RFU, GK / Fold change vs veh, GK / RFU, ZNF148 / Fold change vs veh, ZNF148 / RFU, TAF9 / Fold change vs veh, TAF9 / RFU, SLC1A5 / Fold change vs veh, SLC1A5 / RFU, SLMO2 / Fold change vs veh, SLMO2 / RFU, ABCC4 / Fold change vs veh, ABCC4 / RFU, LOC101060439 /// RAP1B / Fold change vs veh, LOC101060439 /// RAP1B / RFU, RFX7 / Fold change vs veh, RFX7 / RFU, GTPBP10 / Fold change vs veh, GTPBP10 / RFU, CNEP1R1 / Fold change vs veh, CNEP1R1 / RFU, BIVM-ERCC5 /// ERCC5 / Fold change vs veh, BIVM-ERCC5 /// ERCC5 / RFU, ILF3 / Fold change vs veh, ILF3 / RFU 11762660_at / Fold change /veh 11762660_at / RFU VCAN (11757783_s_at) / Fold change /veh VCAN (11757783_s_at) / RFU DDX43 (11728927_at) / Fold change /veh DDX43 (11728927_at) / RFU KRT8 (11758188_x_at) / Fold change /veh KRT8 (11758188_x_at) / RFU NKD1 (11759106_at) / Fold change /veh NKD1 (11759106_at) / RFU SRD5A1 (11742802_a_at) / Fold change /veh SRD5A1 (11742802_a_at) / RFU TPSAB1 /// TPSB2 (11721975_s_at) / Fold change /veh TPSAB1 /// TPSB2 (11721975_s_at) / RFU GSTM3 (11746129_a_at) / Fold change /veh GSTM3 (11746129_a_at) / RFU IL23R (11737362_x_at) / Fold change /veh IL23R (11737362_x_at) / RFU TMEM51 (11727254_a_at) / Fold change /veh TMEM51 (11727254_a_at) / RFU PIWIL2 (11732686_x_at) / Fold change /veh PIWIL2 (11732686_x_at) / RFU ORM1 (11744905_x_at) / Fold change /veh ORM1 (11744905_x_at) / RFU CCDC152 (11743942_at) / Fold change /veh CCDC152 (11743942_at) / RFU ECM1 (11717891_a_at) / Fold change /veh ECM1 (11717891_a_at) / RFU IL23R (11748794_a_at) / Fold change /veh IL23R (11748794_a_at) / RFU TNFAIP8L3 (11732012_x_at) / Fold change /veh TNFAIP8L3 (11732012_x_at) / RFU MBOAT4 (11741988_at) / Fold change /veh MBOAT4 (11741988_at) / RFU 11764193_at / Fold change /veh 11764193_at / RFU TMEM53 (11763286_at) / Fold change /veh TMEM53 (11763286_at) / RFU MAGEB2 (11727129_at) / Fold change /veh MAGEB2 (11727129_at) / RFU TMEM200A (11744735_a_at) / Fold change /veh TMEM200A (11744735_a_at) / RFU CCDC152 (11751479_a_at) / Fold change /veh CCDC152 (11751479_a_at) / RFU FAM211A (11726209_a_at) / Fold change /veh FAM211A (11726209_a_at) / RFU RGS16 (11746705_a_at) / Fold change /veh RGS16 (11746705_a_at) / RFU VCAN (11755009_s_at) / Fold change /veh VCAN (11755009_s_at) / RFU RHOB (11743442_s_at) / Fold change /veh RHOB (11743442_s_at) / RFU RGS16 (11720943_a_at) / Fold change /veh RGS16 (11720943_a_at) / RFU RGS16 (11720944_at) / Fold change /veh RGS16 (11720944_at) / RFU, VPS4B / Fold change vs veh, VPS4B / RFU, CREB1 / Fold change vs veh, CREB1 / RFU, DNAJC13 / Fold change vs veh, DNAJC13 / RFU, GNAQ / Fold change vs veh, GNAQ / RFU, CDK5R1 / Fold change vs veh, CDK5R1 / RFU, ZRANB3 / Fold change vs veh, ZRANB3 / RFU, CUL4A / Fold change vs veh, CUL4A / RFU, CCNY / Fold change vs veh, CCNY / RFU, UFL1 / Fold change vs veh, UFL1 / RFU, COG3 / Fold change vs veh, COG3 / RFU, DIAPH2 / Fold change vs veh, DIAPH2 / RFU, SKA2 / Fold change vs veh, SKA2 / RFU, AFF3 / Fold change vs veh, AFF3 / RFU, LMF1 / Fold change vs veh, LMF1 / RFU, IPO11 / Fold change vs veh, IPO11 / RFU, DFFB / Fold change vs veh, DFFB / RFU, FOXP1 / Fold change vs veh, FOXP1 / RFU, CARD8 / Fold change vs veh, CARD8 / RFU, STRN3 / Fold change vs veh, STRN3 / RFU, ADK / Fold change vs veh, ADK / RFU, RASSF2 / Fold change vs veh, RASSF2 / RFU, WIPF1 / Fold change vs veh, WIPF1 / RFU, LARP1B / Fold change vs veh, LARP1B / RFU, RASA1 / Fold change vs veh, RASA1 / RFU, RB1 / Fold change vs veh, RB1 / RFU, PPFIA1 / Fold change vs veh, PPFIA1 / RFU, MAT2A / Fold change vs veh, MAT2A / RFU, CCT5 / Fold change vs veh, CCT5 / RFU, WDR92 / Fold change vs veh, WDR92 / RFU, CUX1 / Fold change vs veh, CUX1 / RFU, TTC7A / Fold change vs veh, TTC7A / RFU, TMEM135 / Fold change vs veh, TMEM135 / RFU, DEPTOR / Fold change vs veh, DEPTOR / RFU, CPM / Fold change vs veh, CPM / RFU, DNAJB6 / Fold change vs veh, DNAJB6 / RFU, CACNA2D3 / Fold change vs veh, CACNA2D3 / RFU, DTX4 / Fold change vs veh, DTX4 / RFU, TFCP2 / Fold change vs veh, TFCP2 / RFU, GMCL1 /// GMCL1P1 / Fold change vs veh, GMCL1 /// GMCL1P1 / RFU, AEBP2 / Fold change vs veh, AEBP2 / RFU, SNHG1 /// SNORD22 /// SNORD25 /// SNORD26 /// SNORD27 /// SNORD28 /// SNORD29 /// SNORD31 / Fold change vs veh, SNHG1 /// SNORD22 /// SNORD25 /// SNORD26 /// SNORD27 /// SNORD28 /// SNORD29 /// SNORD31 / Fold change (Aza/veh), C12orf56 (ProbeSet 11735607_a_at) / Fold change (ACY-1035/veh), C12orf56 (ProbeSet 11735607_a_at) / Fold change (Aza/veh), FGFR1OP (ProbeSet 11751329_s_at) / Fold change (ACY-1035/veh), FGFR1OP (ProbeSet 11751329_s_at) / Fold change (Aza/veh), VPS36 (ProbeSet 11739960_a_at) / Fold change (ACY-1035/veh), VPS36 (ProbeSet 11739960_a_at) / RFU SYPL1 (11715823_x_at) / Fold change /veh SYPL1 (11715823_x_at) / RFU IGFBP7 (11715501_s_at) / Fold change /veh IGFBP7 (11715501_s_at) / RFU REEP3 (11722064_at) / Fold change /veh REEP3 (11722064_at) / RFU IGLL1 (11728026_x_at) / Fold change /veh IGLL1 (11728026_x_at): dose or concentration left out as unconfirmed
Details: ProbeSet 11726703_a_at; LIST B

## Nc1ncn([C@@H]2O[C@H](CO)[C@@H](O)[C@H]2O)c(=O)n1 [azacitidine]
  RFU, BCL10: 71.45 RFU
